Assay results: the METLIN SMRT retention time set (Domingo-Almenara et al. 2019)

Test: gradient 5% acetonitrile 3 min, to 50% in 2 min, to 85% in 15 min, held 3 min, 100 µL/min
Settings: column: Zorbax Extend-C18 2.1 x 50 mm; eluents: water / acetonitrile, 0.1% formic acid
Summary of the method: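 A Zorbax Extend-C18 column (2.1 × 50 mm, 1.8 μm) run at 100 μL/min with water and acetonitrile, both containing 0.1% formic acid, separated mixtures of ~100 pure standards. The HPLC was coupled to a quadrupole time-of-flight mass spectrometer operated in positive and negative ionization mode, with dead and dwell volumes of 40 μL and 900 μL. Each retention time was taken from a computationally picked adduct peak that was then manually inspected.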

| Compound | RP-LC retention time |
| --- | --- |
| COc1ccc(C(=O)Nc2cccn3c(C)nnc23)cc1F | 667 s |
| CC1(C)C(=O)Nc2ccc(S(=O)(=O)N3CCC(c4noc(C5CC5)n4)C3)cc21 (stereo not drawn) | 747 s |
| N#CC1(C(=O)NCCc2cccs2)CC1 | 708 s |
| CCCNC(=O)Cn1ccn2nc(-c3ccccc3)c(CO)c2c1=O | 684 s |
| Cc1cccc(NS(=O)(=O)c2cc(-c3cc(C(F)(F)F)on3)sc2C)c1C | 1240 s |
| COCCNC(=O)C1Cn2cccc2C(=O)N1CC(C)C (stereo not drawn) | 624 s |
| O=C(c1cc(Cl)ccc1F)N1CCC(c2nc(C3CC3)n[nH]2)CC1 | 611 s |
| Cc1cccc2c(C(=O)N(C)C)cc(=O)[nH]c12 | 597 s |
| Cc1cc(C(=O)Nc2nc3ccc(S(=O)(=O)N(C)C)cc3s2)on1 | 740 s |
| O=C(NCCN1CCOCC1)C1CCN(c2cnc(N3CCSCC3)nc2)CC1 | 590 s |
| Cc1cnc(C(=O)N2CCCC2c2nc(CCOCC3CCCC3)no2)cn1 (stereo not drawn) | 903 s |
| Nc1cc(C2CCN(C(=O)Nc3ccccc3Cl)CC2)no1 | 698 s |
| Cc1ccccc1NC(=O)N1c2ccccc2NC2=C(C(=O)CCC2)C1c1ccco1 (stereo not drawn) | 817 s |
| CC(C)C(=O)NCc1cnn(-c2ccc(C(=O)NCC3CCCO3)cc2)c1 (stereo not drawn) | 640 s |
| CCN1C(=O)CCc2cc(NS(=O)(=O)c3c(C)cccc3Cl)ccc21 | 846 s |
| CCOC(=O)C(C)Sc1nnc2n1CCN2c1ccc(OC)cc1 (stereo not drawn) | 741 s |
| COc1ccc(NC(=O)c2cc(C(C)C)n3nccc3n2)c(C)c1 | 1250 s |
| CCN(CC)C(=O)C1CCN(S(C)(=O)=O)c2cc(Cl)ccc2O1 (stereo not drawn) | 821 s |
| O=C(CCC(=O)N1Cc2cccn2-c2ccccc21)NCc1cccc(Cl)c1 | 957 s |
| Cc1ccc(S(=O)(=O)CCc2noc(C(=O)NCCc3ccc(S(N)(=O)=O)cc3)n2)cc1 | 724 s |
| O=C(N[C@@H](COc1ccc2[nH]c(=O)[nH]c2c1)c1ccccc1)c1cccn(Cc2ccc(F)c(F)c2)c1=O | 893 s |
| CCOC(=O)c1[nH]c(C)c(C(=O)C(C)N(CCOC)C(=O)c2ccccc2Cl)c1C (stereo not drawn) | 820 s |

| Compound | RP-LC retention time |
| --- | --- |
| CCCN(C(C)=O)c1nc(-c2cccc(Br)c2)cs1 | 1260 s |
| COc1ccc(-n2nc(C(=O)N3CCC(C(N)=O)CC3)c(=O)cc2OC)cc1OC | 588 s |
| Cc1ccc(NS(=O)(=O)c2c(C)sc(C)c2-c2cc(C(F)(F)F)on2)cc1 | 1190 s |
| CCn1ccc(NC(=O)Nc2cc(C)cc(C)c2)n1 | 853 s |
| CC(C)C(=O)Nc1cnc(-c2ccccc2)nc1 | 814 s |
| CCOc1ccccc1NC(=O)C1CCCN1S(=O)(=O)c1cc2c(cc1Cl)NC(=O)CO2 (stereo not drawn) | 880 s |
| Cc1ccc(S(=O)(=O)N2CCCCC2c2nncn2C)cc1F (stereo not drawn) | 736 s |
| O=C(c1cccs1)N1CCc2ccc(NS(=O)(=O)C3CCCCC3)cc21 | 892 s |
| COc1ccc(CN2C(=O)[C@H](OC)[C@@H]2C2=CCNCC2)cc1 | 576 s |
| CCc1cccc(NC(=O)Cn2c(C)nc3c(sc4nc(-c5ccccc5)ccc43)c2=O)c1 | 1170 s |
| O=C(CN1CC=C(c2cnn(-c3ccccc3)c2)CC1)Nc1ccccc1Cl | 690 s |
| CCN(CC)S(=O)(=O)c1cc(-c2nnc(-c3ccccc3OC)o2)ccc1Cl | 1090 s |
| O=C(Cc1ccccc1Cl)N1CCN(S(=O)(=O)C2CC2)CC1 | 733 s |
| CN1CCCn2cc(S(=O)(=O)Nc3ccc(Cl)cc3)cc2C1=O | 714 s |
| CCc1ccccc1S(=O)(=O)N1CCC(n2cnnc2C(C)C)CC1 | 784 s |
| COc1cccc2c1OC1(C)CC2C(S(=O)(=O)c2ccc(C(C)C)cc2)C(=O)N1 (stereo not drawn) | 938 s |
| O=C(Nc1ccc2c(c1)CC(C(=O)NCCCc1ccccc1)CO2)c1cccs1 (stereo not drawn) | 900 s |
| C=C[C@@]1(C)CC(=O)[C@]2(O)[C@@]3(C)[C@H](O)CCC(C)(C)[C@@H]3[C@H](O)[C@H](OC(C)=O)[C@@]2(C)O1 | 1040 s |
| O=C(NCC1CCN(Cc2ccco2)CC1)C(=O)Nc1ccc(F)c(Cl)c1 | 584 s |
| CN1C(=O)c2cccn2CC1CNC(=O)NCc1ccccc1 (stereo not drawn) | 646 s |
| Cc1csc(NC(=O)C2CC(=O)N(c3n[nH]c4cccc(F)c34)C2)n1 (stereo not drawn) | 664 s |

Other lines, results leading:

| RP-LC retention time | Compound |
| --- | --- |
| 906 s | CC1(C(=O)NC2CCN(c3ccc(=O)n(CCOc4ccccc4)n3)C2)CCCCC1 (stereo not drawn) |
| 877 s | COc1ccc(-n2ccc(=O)c(-c3nc(-c4ccccc4Cl)no3)n2)cc1 |
| 809 s | COc1ccc(-c2noc(CN3CCN(c4ccc(OC)cc4)CC3)n2)cc1 |
| 684 s | Cc1oc(C2CCN(C(=O)Nc3ccc(F)cc3)CC2)nc1C(=O)N(C)C |
| 804 s | O=C1[C@H]2CN(Cc3cccc(F)c3)C[C@H]2C(=O)N1CCc1ccccc1 |
| 1290 s | CCCN1C(=O)COc2ccc(-c3noc(-c4ccccc4C)n3)cc21 |
| 772 s | CCn1nnc2cc(-c3noc(CNC(=O)c4ccccc4)n3)ccc21 |
| 1130 s | O=C(NCc1ccc(N2CCCC2)cc1)c1sc2ncccc2c1-n1cccc1 |
| 904 s | COc1ccc(CN2CC3(CCN(S(=O)(=O)c4ccc(F)cc4)CC3)C2=O)cc1 |
| 647 s | O=C(Cn1c(SCc2cccc(F)c2)nc2cccnc21)N1CCCC1 |
| 998 s | COc1cc2c(cc1OC)C(COc1ccc(F)cc1)N(C(=O)C(C)(C)C)CC2 (stereo not drawn) |
| 783 s | COc1ccc(NC(=O)C2CCN(S(=O)(=O)c3ccc4c(c3)NC(=O)C(C)O4)CC2)cc1 (stereo not drawn) |
| 1140 s | CC1CCN(C(=O)C2CCN(c3nc4ccc(-c5ccccc5)nc4s3)CC2)CC1 |
| 843 s | COc1cccc(-c2ccc3nc(N4CCC(C(=O)N5CCOCC5)CC4)sc3n2)c1 |
| 958 s | CC(C)Oc1ccc(CNC(=O)c2ccc3c(c2)N(C)C(=O)c2ccccc2O3)cc1 |
| 1140 s | COc1ccc(-c2nc(-c3ccc4nnn(C(C)C)c4c3)no2)cc1 |
| 794 s | CCOC(=O)c1ccc(NC(=O)Cn2c(N3CCOCC3)nc(CC)cc2=O)cc1 |
| 654 s | Fc1ccc(OCc2nc(-c3ccc4c(c3)ncn4CCN3CCCCC3)no2)cc1 |
| 1060 s | COc1ccc(OCc2ccc(C(=O)Nc3cc4c(cc3C(C)=O)OCO4)o2)cc1 |
| 999 s | Cc1ccc(S(=O)(=O)N2CCC(n3c(-c4ccco4)nc4cccnc43)C2)cc1Cl (stereo not drawn) |
| 588 s | CC(C)c1nc2ccc(C(=O)NCCCN3CCN(C4CCCCC4)CC3)cc2o1 |
| 1190 s | COC(=O)c1ccccc1Nc1c(-c2ccc(C)cc2)nc2cnc(Br)cn12 |
| 721 s | CCOc1ccc(-c2cc(=O)n(CCCC(=O)Nc3ccc4sc(C)nc4c3)cn2)cc1 |

| RP-LC retention time | Compound |
| --- | --- |
| 796 s | CCn1c(C2CCN(S(=O)(=O)c3ccc(Cl)cc3)C2)nc2cccnc21 (stereo not drawn) |
| 831 s | CCc1ccc(S(=O)(=O)N2CCC3(CC2)NCCN=C3NCc2ccc(F)c(Cl)c2)cc1 |
| 792 s | O=C1[C@H]2CN(Cc3ccccc3F)C[C@H]2C(=O)N1Cc1ccc2c(c1)OCO2 |
| 730 s | O=S(=O)(c1ccccc1)N1CCC2(CC1)NCCN=C2NCc1ccc(F)c(Cl)c1 |
| 902 s | Cn1cc(-c2cc3n(n2)CCC(=O)N3CC(=O)Nc2ccc(Cl)cc2)c2ccccc21 |
| 735 s | O=C(NCc1cccnc1-c1ccc(F)cc1)c1ccc(Br)cc1 |
| 1060 s | COc1cc(-c2noc(Cn3ncn4nc(-c5ccccc5Cl)cc4c3=O)n2)cc(OC)c1OC |
| 677 s | Nc1nc(SCC(=O)c2ccc(-c3ccccc3)cc2)n[nH]1 |
| 664 s | C=CCN1CC(c2nc3ccccc3n2CC(O)COc2cc(C)ccc2C)CC1=O (stereo not drawn) |
| 638 s | COc1ccccc1CNc1ncc(C(=O)O)c(-c2ccncc2)n1 |
| 809 s | COc1ccc(NC(=O)N2CCCC2c2nc(-c3ccccc3OC)no2)c(C)c1 (stereo not drawn) |
| 660 s | Cc1cc(N2CCOCC2)nc(N2CCN(C(=O)c3ccc(Br)cc3)CC2)n1 |
| 830 s | CN(C)S(=O)(=O)c1ccc(NC(=O)N2CCCC(C(=O)Nc3ccc(F)cc3)C2)s1 (stereo not drawn) |
| 689 s | CCNC(=O)C1CCCN(c2nc3ncn(CC(=O)Nc4cc(F)ccc4C)c(=O)c3s2)C1 (stereo not drawn) |
| 795 s | CN1c2cc(Cl)ccc2C(=O)NC12CCN(C(=O)NCc1ccccc1)CC2 |
| 745 s | O=C(c1ccc(F)c(F)c1)N1CCC(n2c(-c3ccoc3)nc3cccnc32)C1 (stereo not drawn) |
| 871 s | COc1ccc(C2C(C(=O)N3CC(C)CC(C)C3)CCC(=O)N2c2ccc(OC)cc2)cc1 (stereo not drawn) |
| 946 s | COc1ccc(-n2nc(-c3nc(-c4ccccn4)no3)c3ccccc3c2=O)cc1 |
| 666 s | O=C(NC1CCN(C(=O)C2CC2)C1)c1ccc(F)cc1 (stereo not drawn) |
| 884 s | CC(CNC(=O)c1cc2n(n1)CC(C)(C(=O)NC1CCCC1)N(C)C2=O)c1ccccc1 (stereo not drawn) |
| 1020 s | CC(C)c1noc(-c2cc(=O)n(CC(=O)Nc3ccc(F)cc3F)c3ccccc23)n1 |
| 840 s | CC1=C(c2ccc(Cl)cc2)S(=O)(=O)N=C1N1CCCN(C(=O)c2cccs2)CC1 |
